From patent US9040533B2, “Oxime-substituted-quinoxaline-type piperidine compounds as ORL-1 modulators” (priority 2012, dated 2015)

Key:
Assay in all cases: biochemical
[1] = target: CYP2C19 (Homo sapiens, UniProt P33261)
[2] = target: CYP2C9 (Homo sapiens, UniProt P11712)
[3] = target: CYP2D6 (Homo sapiens, UniProt P10635)
[4] = target: T1, CYP1A2 (Homo sapiens, UniProt P05177)
T1 sequence (P05177 1-516): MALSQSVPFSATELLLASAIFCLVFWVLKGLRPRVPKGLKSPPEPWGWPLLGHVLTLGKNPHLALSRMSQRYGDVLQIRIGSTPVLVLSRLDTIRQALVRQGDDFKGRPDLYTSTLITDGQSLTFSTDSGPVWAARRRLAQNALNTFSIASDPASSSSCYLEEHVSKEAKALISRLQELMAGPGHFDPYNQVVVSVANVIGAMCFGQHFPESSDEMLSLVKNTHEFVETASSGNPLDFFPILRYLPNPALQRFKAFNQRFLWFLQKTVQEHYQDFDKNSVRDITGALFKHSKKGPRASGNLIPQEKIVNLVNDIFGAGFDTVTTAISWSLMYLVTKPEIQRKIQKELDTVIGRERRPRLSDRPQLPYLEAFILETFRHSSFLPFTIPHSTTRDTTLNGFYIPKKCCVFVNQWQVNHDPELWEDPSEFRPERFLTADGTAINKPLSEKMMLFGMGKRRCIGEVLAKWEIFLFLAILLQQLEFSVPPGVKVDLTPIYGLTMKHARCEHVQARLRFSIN

[5] = target: CYP3A4 (Homo sapiens, UniProt P08684)

Measured: IC50

CYP3A4, sequence (P08684 whole entry): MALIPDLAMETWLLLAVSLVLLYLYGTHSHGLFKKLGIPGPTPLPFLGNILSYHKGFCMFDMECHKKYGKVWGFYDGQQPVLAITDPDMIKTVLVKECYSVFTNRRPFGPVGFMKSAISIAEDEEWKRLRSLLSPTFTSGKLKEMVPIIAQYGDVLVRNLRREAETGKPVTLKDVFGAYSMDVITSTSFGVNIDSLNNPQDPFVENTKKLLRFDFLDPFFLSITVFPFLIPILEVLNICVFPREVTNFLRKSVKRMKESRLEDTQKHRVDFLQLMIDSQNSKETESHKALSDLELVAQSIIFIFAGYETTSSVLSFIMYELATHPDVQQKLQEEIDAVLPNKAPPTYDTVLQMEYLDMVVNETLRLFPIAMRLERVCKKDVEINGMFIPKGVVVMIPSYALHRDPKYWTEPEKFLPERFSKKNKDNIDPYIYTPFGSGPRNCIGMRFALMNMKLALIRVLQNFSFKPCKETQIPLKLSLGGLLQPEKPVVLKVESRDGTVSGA
CYP2C9, sequence (P11712 whole entry): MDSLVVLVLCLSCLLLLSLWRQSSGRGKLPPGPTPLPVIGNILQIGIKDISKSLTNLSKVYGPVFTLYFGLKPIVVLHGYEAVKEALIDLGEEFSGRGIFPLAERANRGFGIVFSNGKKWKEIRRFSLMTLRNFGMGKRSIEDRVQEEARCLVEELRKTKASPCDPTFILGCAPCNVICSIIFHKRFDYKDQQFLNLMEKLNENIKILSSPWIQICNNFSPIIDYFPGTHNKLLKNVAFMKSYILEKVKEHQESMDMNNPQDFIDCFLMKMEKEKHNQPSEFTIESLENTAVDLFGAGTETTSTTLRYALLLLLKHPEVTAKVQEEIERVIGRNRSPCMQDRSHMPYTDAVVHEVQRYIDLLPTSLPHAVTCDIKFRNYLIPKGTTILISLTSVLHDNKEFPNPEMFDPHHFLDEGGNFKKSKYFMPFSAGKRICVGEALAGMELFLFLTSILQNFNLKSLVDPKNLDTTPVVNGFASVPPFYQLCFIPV
CYP2D6, sequence (P10635 whole entry): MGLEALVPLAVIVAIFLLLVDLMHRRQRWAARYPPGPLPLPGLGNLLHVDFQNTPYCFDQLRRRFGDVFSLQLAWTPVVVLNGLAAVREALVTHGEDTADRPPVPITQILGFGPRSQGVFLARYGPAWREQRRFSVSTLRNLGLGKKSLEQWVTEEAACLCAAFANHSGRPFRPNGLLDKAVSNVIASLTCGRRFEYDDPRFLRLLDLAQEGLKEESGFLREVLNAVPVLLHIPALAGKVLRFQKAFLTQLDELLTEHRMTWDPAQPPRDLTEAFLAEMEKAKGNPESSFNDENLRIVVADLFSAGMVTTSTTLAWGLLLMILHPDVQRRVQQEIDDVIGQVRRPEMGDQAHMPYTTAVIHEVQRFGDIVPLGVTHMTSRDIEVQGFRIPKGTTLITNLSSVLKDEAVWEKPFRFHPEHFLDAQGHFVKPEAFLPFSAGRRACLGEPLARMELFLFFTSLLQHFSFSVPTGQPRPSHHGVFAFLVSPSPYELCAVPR
CYP2C19, sequence (P33261 whole entry): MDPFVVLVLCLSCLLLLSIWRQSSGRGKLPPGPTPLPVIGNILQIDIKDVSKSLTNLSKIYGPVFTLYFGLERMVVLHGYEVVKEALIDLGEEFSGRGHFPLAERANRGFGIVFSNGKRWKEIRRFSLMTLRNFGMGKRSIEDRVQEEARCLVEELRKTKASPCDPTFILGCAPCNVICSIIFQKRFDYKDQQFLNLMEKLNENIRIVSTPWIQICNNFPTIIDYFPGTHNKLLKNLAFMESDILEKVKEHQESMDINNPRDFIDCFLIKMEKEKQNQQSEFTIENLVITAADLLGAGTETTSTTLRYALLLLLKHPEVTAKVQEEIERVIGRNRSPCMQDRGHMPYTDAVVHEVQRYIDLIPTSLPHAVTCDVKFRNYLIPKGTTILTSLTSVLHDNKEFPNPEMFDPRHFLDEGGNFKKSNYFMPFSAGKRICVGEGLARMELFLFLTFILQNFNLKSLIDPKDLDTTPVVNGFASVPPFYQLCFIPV

CC(C)O/N=C(\C(=O)O)c1nc2ccccc2n([C@H]2C[C@H]3CCC[C@@H](C2)N3C2CC3CCCCC(C3)C2)c1=O (stereo partly drawn) [Compound 33, 2-(4-((1R,3R)-9-(bicyclo[4.3.1]decan-8-yl)-9-azabicyclo[3.3.1]nonan-3-yl)-3-oxo-3,4-dihydroquinoxalin-2-yl)-2-(isopropoxyimino)acetic acid]
> 20 µM: all assays above

CCON=C(C(=O)O)c1nc2ccccc2n([C@H]2C[C@H]3CC[C@@H](C2)N3C2CC3CCCCC(C3)C2)c1=O (stereo partly drawn) [Compound 36]
> 20 µM: all assays above

CC(C)ON=C(C(=O)O)c1nc2ccccc2n([C@H]2C[C@H]3CC[C@@H](C2)N3C2CC3CCCCC(C3)C2)c1=O (stereo partly drawn) [Compound 37, [4-((1S,3R,5R)-(1R,6S,8S)-8-bicyclo[4.3.1]dec-8-yl-8-aza-bicyclo[3.2.1]oct-3-yl)-3-oxo-3,4-dihydro-quinoxalin-2-yl]-isopropoxyimino-acetic acid]
> 20 µM: all assays above

NC(=O)CO/N=C(\C(=O)O)c1nc2ccccc2n([C@H]2C[C@H]3CCC[C@@H](C2)N3C2CC3CCCC(C3)C2)c1=O (stereo partly drawn) [Compound 38, (Z)-2-(2-amino-2-oxoethoxyimino)-2-(4-((1R,3R)-9-(bicyclo[3.3.1]nonan-3-yl)-9-azabicyclo[3.3.1]nonan-3-yl)-3-oxo-3,4-dihydroquinoxalin-2-yl)acetic acid]
> 20 µM: all assays above

NC(=O)CO/N=C(\CCC(=O)O)c1nc2ccccc2n([C@H]2C[C@H]3CCC[C@@H](C2)N3C2CC3CCCC(C3)C2)c1=O (stereo partly drawn) [Compound 39]
> 20 µM: all assays above

NC(=O)CO/N=C(\CCC(=O)O)c1nc2ccccc2n([C@H]2C[C@H]3CCC[C@@H](C2)N3C2CC3CCCCC(C3)C2)c1=O (stereo partly drawn) [Compound 41, (E)-4-(2-amino-2-oxoethoxyimino)-4-(4-((1R,3R)-9-(bicyclo[4.3.1]decan-8-yl)-9-azabicyclo[3.3.1]nonan-3-yl)-3-oxo-3,4-dihydroquinoxalin-2-yl)butanoic acid]
> 20 µM: all assays above

CNC(=O)CCC(=NOCC(=O)O)c1nc2ccccc2n([C@H]2C[C@H]3CCC[C@@H](C2)N3C2CC3CCCC(C3)C2)c1=O (stereo partly drawn) [Compound 42, 2-(((1-(4-((1R,1′R,3r,3′R,5S,5′S)-[3,9′-bi(9′-azabicyclo[3.3.1]nonan)]-3′-yl)-3-oxo-3,4-dihydroquinoxalin-2-yl)-4-(methylamino)-4-oxobutylidene)amino)oxy)acetic acid]
> 20 µM: all assays above

CNC(=O)/C(=N\OCC(=O)O)c1nc2ccccc2n([C@H]2C[C@H]3CCC[C@@H](C2)N3C2CC3CCCC(C3)C2)c1=O (stereo partly drawn) [Compound 43]
> 20 µM: all assays above

NC(=O)CCC(=NOCC(=O)O)c1nc2ccccc2n([C@H]2C[C@H]3CCC[C@@H](C2)N3C2CC3CCCC(C3)C2)c1=O (stereo partly drawn) [Compound 44]
> 20 µM: all assays above

NC(=O)CO/N=C(\C(=O)O)c1nc2ccccc2n([C@H]2C[C@H]3CCC[C@@H](C2)N3C2CC3CCCCC(C3)C2)c1=O (stereo partly drawn) [Compound 45, (Z)-2-(2-amino-2-oxoethoxyimino)-2-(4-((1R,3R)-9-(bicyclo[4.3.1]decan-8-yl)-9-azabicyclo[3.3.1]nonan-3-yl)-3-oxo-3,4-dihydroquinoxalin-2-yl)acetic acid]
> 20 µM: all assays above

COCCO/N=C(\C(=O)O)c1nc2ccccc2n([C@H]2C[C@H]3CCC[C@@H](C2)N3C2CC3CCCCC(C3)C2)c1=O (stereo partly drawn) [Compound 46]
> 20 µM: all assays above

COCCO/N=C(\C(=O)O)c1nc2ccccc2n([C@H]2C[C@H]3CCC[C@@H](C2)N3C2CC3CCCC(C3)C2)c1=O (stereo partly drawn) [Compound 49]
> 20 µM: all assays above

CON=C(C(=O)O)c1nc2ccccc2n([C@H]2C[C@H]3COC[C@@H](C2)N3C2CC3CCCCC(C3)C2)c1=O (stereo partly drawn) [Compound 50, [4-((1R,5S,7S)-(1S,6R,8R)-9-bicyclo[4.3.1]dec-8-yl-3-oxa-9-aza-bicyclo[3.3.1]non-7-yl)-3-oxo-3,4-dihydro-quinoxalin-2-yl]-methoxyimino-acetic acid]
> 20 µM: all assays above

CN(C)C(=O)C(=NOCC(=O)O)c1nc2ccccc2n([C@H]2C[C@H]3CCC[C@@H](C2)N3C2CC3CCCC(C3)C2)c1=O (stereo partly drawn) [Compound 51]
> 20 µM: all assays above

CC(O/N=C(\C(=O)O)c1nc2ccccc2n([C@H]2C[C@H]3CCC[C@@H](C2)N3C2CC3CCCC(C3)C2)c1=O)C(N)=O (stereo partly drawn) [Compound 52]
> 20 µM: all assays above

CC(C)C(O/N=C(\C(=O)O)c1nc2ccccc2n([C@H]2C[C@H]3CCC[C@@H](C2)N3C2CC3CCCC(C3)C2)c1=O)C(N)=O (stereo partly drawn) [Compound 53]
> 20 µM: all assays above

CNC(=O)C(=NOCC(=O)O)c1nc2ccccc2n([C@H]2C[C@H]3CCC[C@@H](C2)N3C2CC3CCCCC(C3)C2)c1=O (stereo partly drawn) [Compound 54]
> 20 µM: all assays above

NC(=O)C(=NOCC(=O)O)c1nc2ccccc2n([C@H]2C[C@H]3CCC[C@@H](C2)N3C2CC3CCCCC(C3)C2)c1=O (stereo partly drawn) [Compound 55]
> 20 µM: all assays above

COCCO/N=C(\CCC(=O)O)c1nc2ccccc2n([C@H]2C[C@H]3CCC[C@@H](C2)N3C2CC3CCCCC(C3)C2)c1=O (stereo partly drawn) [Compound 56]
> 20 µM: all assays above

CC(C)(ON=C(C(N)=O)c1nc2ccccc2n([C@H]2C[C@H]3CCC[C@@H](C2)N3C2CC3CCCC(C3)C2)c1=O)C(=O)O (stereo partly drawn) [Compound 57]
> 20 µM: all assays above

CNC(=O)CCC(=NOCC(=O)O)c1nc2ccccc2n([C@H]2C[C@H]3CCC[C@@H](C2)N3C2CC3CCCCC(C3)C2)c1=O (stereo partly drawn) [Compound 58]
> 20 µM: all assays above

NC(=O)CCC(=NOCC(=O)O)c1nc2ccccc2n([C@H]2C[C@H]3CCC[C@@H](C2)N3C2CC3CCCCC(C3)C2)c1=O (stereo partly drawn) [Compound 59]
> 20 µM: all assays above

NC(=O)CO/N=C(\C(=O)O)c1nc2ccccc2n([C@H]2C[C@H]3CC[C@@H](C2)N3C2CC3CCCCC(C3)C2)c1=O (stereo partly drawn) [Compound 60]
> 20 µM: all assays above

CC(C)(O/N=C(\C(=O)O)c1nc2ccccc2n([C@H]2C[C@H]3CC[C@@H](C2)N3C2CC3CCCCC(C3)C2)c1=O)C(N)=O (stereo partly drawn) [Compound 61]
> 20 µM: all assays above

CN(C)C(=O)CON=C(C(=O)O)c1nc2ccccc2n([C@H]2C[C@H]3CCC[C@@H](C2)N3C2CC3CCCC(C3)C2)c1=O (stereo partly drawn) [Compound 63]
> 20 µM: all assays above

CNC(=O)CON=C(C(=O)O)c1nc2ccccc2n([C@H]2C[C@H]3CCC[C@@H](C2)N3C2CC3CCCC(C3)C2)c1=O (stereo partly drawn) [Compound 64]
> 20 µM: all assays above

N#CC(=NOCC(=O)O)c1nc2ccccc2n([C@H]2C[C@H]3CCC[C@@H](C2)N3C2CC3CCCC(C3)C2)c1=O (stereo partly drawn) [Compound 65, 2-((((4-((1R,1′R,3r,3′R,5S,5′S)-[3,9′-bi(9′-azabicyclo[3.3.1]nonan)]-3′-yl)-3-oxo-3,4-dihydroquinoxalin-2-yl)(cyano)methylene)amino)oxy)acetic acid]
> 20 µM: all assays above
